The numbers were not newly measured in article PMC12458691 (Inorganic Chemistry, 2025), which cites them from elsewhere.

The conditions of data set [1]: Table S3, 0.15 M NaClO4, 298.1 K; ref 1 of the SI; cited from earlier work.
On the set-up of data set [2]: method as in footnotes c–f, numbers not given. Particulars: Cu2+ complexes/salt/enzyme, literature data for comparison; ref footnotes c–f, numbers not given; cited from earlier work.
The conditions of data set [3]: Table S2, 0.15 M NaClO4, 298.1 K, ref 1 of the SI, cited from earlier work.
On the set-up of data set [4]: method as in number not given. Particulars: Mn2+ complexes of the ligands, recently reported; ref number not given; cited from earlier work.
On the set-up of data set [5]: method as in earlier work. Particulars: Table S3, 0.15 M NaClO4, 298.1 K; ref 1 of the SI; cited from earlier work.

Take `c1cc2nc(c1)CNCCNCCNC2` [^ H PyNH 3]: in data set [1], the “log K, [CuL(OH)]+ + H2O ⇄ [CuL(OH)2] + H+” value is recorded as -10.7(1) and the “log K, [CuL]2+ + H2O ⇄ [CuL(OH)]+ + H+” value was -8.68(8). Also, the “k cat (SOD catalytic constant)” value in data set [2] is listed as 1.7 10^6 M^–1 s^–1. Also, in data set [3] (potentiometry), the “log K, H + H2L ⇄ H3L (stepwise protonation constant)” value is listed as 1.90(1); the “log K, H + HL ⇄ H2L (stepwise protonation constant)” value is 7.96(1); the “log K, H + L ⇄ HL (stepwise protonation constant)” value was 10.54(1). In addition, the “log β (∑log K, protonation)” value in data set [3] is on record as 20.40. Moreover, the “TON of catalase activity of the Mn2+ complexes” value in data set [4] is 25–37. Moreover, in data set [5], the “log K, Fe2+ + L ⇄ [FeL]2+ (stability constant)” value is listed as 12.68(2) and the “log K, [FeL]2+ + H2O ⇄ [FeL(OH)] + H+” value is -6.94(5).
